Laboratory results taken from US20230285442A1, “USE OF OLIGOCHITOSANS AND DERIVATIVES THEREOF FOR NEUTRALIZING VIRAL AGENTS” (priority 2020, published 2023).

Experiments:
HIV-1 89.6 = assay: Anti-HIV activity in PBMC culture ex vivo, p24 in culture supernatants; format: cell-based, human; settings: PBMCs infected with HIV-1 89.6, day 3 of the culture
Protocol: PBMCs were treated with NCD1 or not treated, followed by infection with HIV-1 89.6. Samples were pelleted on days 0, 2, and 3. Culture supernatants were assayed for p24 concentration. The assay was done in triplicate.
HIV p24 Assay: HIV-1 p24 ELISA was performed using HIV-1 p24 antigen capture assay according to manufacturer's protocol (Advanced BioSciences Laboratory).
To confirm the activity of the newly synthesized compounds in HIV infected human cells, peripheral blood mononuclear cells (PBMCs) from healthy humans were cultured and parallel assays with PBMCs treated with NCD1 and samples with no treatment were run, followed by infection with HIV-1 89.6. Samples were pelleted on days 0, 2, and 3. Culture supernatants were assayed for p24 concentration.

Solubility in water = format: physicochemical
HIV-89.6 = assay: HIV binding in culture supernatant, total HIV RNA in supernatant; settings: non-sulfated, unmodified oligochitosan
Protocol: The desired compound in PBS or DMSO was incubated with virus for 30 min and then centrifuged. Total RNA isolated from supernatant was quantified. The assay was done in triplicate.
Medium/blood samples. To ensure uniformity and reproducibility, standards with known viral copy numbers of HIV89.6 (NIH NIAID repository) were prepared. A known amount of virus was spiked into cell culture medium in ten-fold serial dilutions. HIV-1 RNA was extracted using the High Pure viral RNA kit (Ambion). Complementary DNA (cDNA) was synthesized with the SuperScript III cDNA Synthesis Kit (Invitrogen) and amplified and quantified using primers specific for HIV-1 LTR. Real-time PCR amplification was performed in a CFX96™ Real-Time system (Bio-Rad, Hercules, CA). […] HIV-1 specific amplicons were detected using SYBR Green (Bio-Rad). The number of HIV-1 RNA copies in each test template was measured by its threshold cycle (Ct) as determined from the curve of serially diluted standards using data analysis software (Bio-Rad CFX Manager). […] Quantification of HIV-1 RNA in each test sample was back calculated and viral load was expressed as copies/ml. […]
Quantitative real time PCR was performed using BioRad CFX 96 with the known amounts of HIV-1 RNA as standards. The starting quantity of HIV-1 RNA in the samples treated with different compounds was determined using the standard curve and is plotted on the graph. […]

| Substance | p24 levels in culture supernatants, treated vs non-treated cells (HIV-1 89.6) | solubility in water (Solubility in water) | binding to HIV (HIV-89.6) |
| --- | --- | --- | --- |
| Oligochitosan 10 kDa [NCD1] | significantly reduced | soluble | surprising and unexpected binding to HIV |
| Starch azure [NCD9] |  | insoluble in water |  |
